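Cultured in 96-well plates, cells were exposed to test compound for 48 hours across five concentrations. At the GI50, growth is halved. TGI marks complete inhibition of growth.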
How the values were obtained:
Assay in all cases: DTP human tumour cell line panel, 48 h
[1] = tested on: 786-0 renal
[2] = tested on: A498 renal
[3] = tested on: A549 NSCLC
[4] = tested on: ACHN renal
[5] = tested on: BT-549 breast
[6] = tested on: DU-145 prostate
[7] = tested on: EKVX NSCLC
[8] = tested on: HCC-2998 colon
[9] = tested on: HCT-15 colon
[10] = tested on: HOP-62 NSCLC
[11] = tested on: HOP-92 NSCLC
[12] = tested on: HS 578T breast
[13] = tested on: HT29 colon
[14] = tested on: LOX IMVI melanoma
[15] = tested on: MDA-MB-435
[16] = tested on: NCI-H23 lung
[17] = tested on: NCI-H460 lung
[18] = tested on: OVCAR-3 ovarian
[19] = tested on: OVCAR-4 ovarian
[20] = tested on: OVCAR-5 ovarian
[21] = tested on: PC-3 prostate
[22] = tested on: RXF 393 renal
[23] = tested on: SF-268 CNS
[24] = tested on: SF-295 CNS
[25] = tested on: SK-MEL-28 melanoma
[26] = tested on: SK-OV-3 ovarian
[27] = tested on: SNB-19 CNS
[28] = tested on: SNB-75 CNS
[29] = tested on: SW-620 colon
[30] = tested on: T-47D breast
[31] = tested on: TK-10 renal
[32] = tested on: UACC-62 melanoma
[33] = tested on: UO-31 renal

**Q.** For Cn1cc(-c2csc(-c3cn(CCCCN4CCCCC4)c4ccccc34)n2)c2cccnc21, which GI50 [1] is on record?
**A.** 1640 nM

**Q.** And the TGI [1]?
**A.** 3050 nM

**Q.** And the GI50 [2]?
**A.** 1610 nM

**Q.** What about the TGI [2] of the same compound?
**A.** 3000 nM

**Q.** What about the GI50 [3] of the same compound?
**A.** 1790 nM

**Q.** And the TGI [3]?
**A.** 3370 nM

**Q.** And the GI50 [4]?
**A.** 1670 nM

**Q.** What about the TGI [4] of the same compound?
**A.** 3030 nM

**Q.** And the GI50 [5]?
**A.** 1750 nM

**Q.** What about the TGI [5] of the same compound?
**A.** 3370 nM

**Q.** What about the GI50 [6] of the same compound?
**A.** 1750 nM

**Q.** What about the TGI [6] of the same compound?
**A.** 3200 nM

**Q.** What about the GI50 [7] of the same compound?
**A.** 1580 nM

**Q.** What about the TGI [7] of the same compound?
**A.** 3030 nM

**Q.** What about the GI50 [8] of the same compound?
**A.** 1850 nM

**Q.** What about the TGI [8] of the same compound?
**A.** 3410 nM

**Q.** What about the GI50 [9] of the same compound?
**A.** 1530 nM

**Q.** And the TGI [9]?
**A.** 2900 nM

**Q.** And the GI50 [10]?
**A.** 1600 nM

**Q.** And the TGI [10]?
**A.** 3190 nM

**Q.** And the GI50 [11]?
**A.** 1320 nM

**Q.** What about the TGI [11] of the same compound?
**A.** 2700 nM

**Q.** What about the GI50 [12] of the same compound?
**A.** 1670 nM

**Q.** And the TGI [12]?
**A.** 4160 nM

**Q.** And the GI50 [13]?
**A.** 1580 nM

**Q.** And the TGI [13]?
**A.** 3100 nM

**Q.** And the GI50 [14]?
**A.** 1710 nM

**Q.** And the TGI [14]?
**A.** 3210 nM

**Q.** And the GI50 [15]?
**A.** 1130 nM

**Q.** And the TGI [15]?
**A.** 2360 nM

**Q.** What about the GI50 [16] of the same compound?
**A.** 1660 nM

**Q.** And the TGI [16]?
**A.** 3210 nM

**Q.** What about the GI50 [17] of the same compound?
**A.** 1830 nM

**Q.** What about the TGI [17] of the same compound?
**A.** 3440 nM

**Q.** What about the GI50 [18] of the same compound?
**A.** 1710 nM

**Q.** And the TGI [18]?
**A.** 3130 nM

**Q.** And the GI50 [19]?
**A.** 1960 nM

**Q.** What about the TGI [19] of the same compound?
**A.** 4040 nM

**Q.** And the GI50 [20]?
**A.** 1600 nM

**Q.** And the TGI [20]?
**A.** 3060 nM

**Q.** And the GI50 [21]?
**A.** 1610 nM

**Q.** And the TGI [21]?
**A.** 3030 nM

**Q.** What about the GI50 [22] of the same compound?
**A.** 1480 nM

**Q.** What about the TGI [22] of the same compound?
**A.** 2990 nM

**Q.** And the GI50 [23]?
**A.** 1710 nM

**Q.** What about the TGI [23] of the same compound?
**A.** 3370 nM

**Q.** What about the GI50 [24] of the same compound?
**A.** 1640 nM

**Q.** What about the TGI [24] of the same compound?
**A.** 3060 nM

**Q.** And the GI50 [25]?
**A.** 1700 nM

**Q.** And the TGI [25]?
**A.** 3120 nM

**Q.** What about the GI50 [26] of the same compound?
**A.** 1770 nM

**Q.** And the TGI [26]?
**A.** 3210 nM

**Q.** And the GI50 [27]?
**A.** 1640 nM

**Q.** What about the TGI [27] of the same compound?
**A.** 3070 nM

**Q.** What about the GI50 [28] of the same compound?
**A.** 1510 nM

**Q.** And the TGI [28]?
**A.** 2990 nM

**Q.** And the GI50 [29]?
**A.** 1720 nM

**Q.** What about the TGI [29] of the same compound?
**A.** 3250 nM

**Q.** What about the GI50 [30] of the same compound?
**A.** 14300 nM

**Q.** And the TGI [30]?
**A.** 40300 nM

**Q.** What about the GI50 [31] of the same compound?
**A.** 1610 nM

**Q.** And the TGI [31]?
**A.** 3050 nM

**Q.** What about the GI50 [32] of the same compound?
**A.** 1790 nM

**Q.** And the TGI [32]?
**A.** 3270 nM

**Q.** What about the GI50 [33] of the same compound?
**A.** 1510 nM

**Q.** And the TGI [33]?
**A.** 2950 nM
